Assay results: the NIST ThermoML archive (doi:10.1021/je100652b)
Numbers after ± are expanded uncertainties.

Settings: 101.33 kPa, Liquid; for speed of sound: Sing-around technique in a fixed-path interferometer

SMILES | mass density (298.15 K) | speed of sound (298.15 K) | mass density (308.15 K) | speed of sound (308.15 K)
Cc1ccc(C)cc1 [1,4-dimethylbenzene] | 856.7 ± 0.39 kg/m3 | 1314 ± 2 m/s | 847.88 ± 0.4 kg/m3 | 1272 ± 2 m/s
c1ccccc1 [benzene] | 873.58 ± 0.36 kg/m3 | 1300 ± 2 m/s | 862.96 ± 0.38 kg/m3 | 1260 ± 2 m/s
CCCCO [butan-1-ol] | 805.91 ± 0.56 kg/m3 | 1244 ± 2 m/s | 798.21 ± 0.57 kg/m3 | 1212 ± 2 m/s
C1CCCCC1 [cyclohexane] | 773.86 ± 0.51 kg/m3 | 1254 ± 2 m/s | 764.46 ± 0.53 kg/m3 | 1212 ± 2 m/s
CCc1ccccc1 [ethylbenzene] | 862.63 ± 0.38 kg/m3 | 1319 ± 2 m/s | 853.89 ± 0.39 kg/m3 | 1276 ± 2 m/s
CCCCCCCO [heptan-1-ol] | 818.91 ± 0.55 kg/m3 | 1330 ± 2 m/s | 811.94 ± 0.55 kg/m3 | 1292 ± 2 m/s
C=C(C)C(=O)OC [methyl methacrylate] | 937.6 ± 0.28 kg/m3 | 1182 ± 2 m/s | 925.7 ± 0.3 kg/m3 | 1152 ± 2 m/s
CCCCCO [pentan-1-ol] | 810.76 ± 0.56 kg/m3 | 1274 ± 2 m/s | 803.41 ± 0.57 kg/m3 | 1240 ± 2 m/s
Cc1ccccc1 [toluene] | 862.21 ± 0.38 kg/m3 | 1304 ± 2 m/s | 852.86 ± 0.39 kg/m3 | 1262 ± 2 m/s
